Values of other authors in US8394309B2, “Resin film and method for producing it, polarizer and liquid crystal display device” (FUJIFILM Corporation, priority 2010, dated 2013).

Conditions: Table 1
In the case of `O=C(O)CC(O)(CC(=O)O)C(=O)O` [Citric acid, reference compound], the “Organic acid: Acid dissociation constant” value is given as 4.0.
In the case of `CCCCCCCC/C=C/CCCCCCCC(=O)OCC(O)COC(=O)CC(O)(CC(=O)O)C(=O)O` (centres unmarked) [Citric and oleic acid esters of glycerol, citric and oleic acid esters of glycerol], the “Organic acid: Acid dissociation constant” value is listed as 3.2.
For `O=C(O)CN(CC(=O)O)Cc1ccccc1` [N-benzylimino-diacetic acid, N-benzyliminodiacetic acid], the “Organic acid: Acid dissociation constant” value is listed as 3.2.
For `CCCCCCCC/C=C\CCCCCCCC(=O)O` [Oleic acid], the “Organic acid: Acid dissociation constant” value is given as 4.9.
For `CCCCOB(OCCCC)OCCCC` [Tributyl borate, reference compound], the “Organic acid: Acid dissociation constant” value is given as 6.0.
For `CCCCCCCCCCC(=O)O` [Undecanoic acid], the “Organic acid: Acid dissociation constant” value is listed as 4.8.
In the case of `CCCCC(=O)O` [Valeric acid, reference compound], the “Organic acid: Acid dissociation constant” value is given as 4.8.
For `CCCCCCCCCCCCN(CC(=O)O)CC(=O)O` [lauramino-diacetic acid, lauraminodiacetic acid], the “Organic acid: Acid dissociation constant” value is given as 4.5.
